Experiment: Metabolic stability in human liver microsomes
Assay type: in vitro ADME
Conditions: 37° C., 0-60 minutes
Protocol: This example illustrates the metabolic stability of selected compounds in human liver microsomes samples.
Both test and control compound solutions were prepared by diluting 5 μL of the respective stock solutions (10 mM in DMSO) containing either the test or control compound with 495 μL of acetonitrile (ACN) to give intermediate solutions with concentrations of 100 μM (99% ACN).
β-Nicotinamide adenine dinucleotide phosphate tetrasodium salt (NADPH.4Na) was purchased from BONTAC (cat. No. BT04). The NADPH working solution (10 unit/mL) was prepared by combining the appropriate amount of NADPH powder and a MgCl2 solution (10 mM) to give final concentration in the reaction system of 1 unit/mL.
The appropriate concentrations of the microsome working solutions were prepared in 100 mM potassium phosphate buffer.
Cold (4° C.) acetonitrile solution containing 200 ng/mL tolbutamide and 200 ng/mL labetalol (internal standard) was used as the stop solution.
Liver microsomes solution was diluted to 0.56 mg/mL in 100 mM phosphate buffer, and 445 μL of this solution was transferred into pre-warmed (10 minutes) “incubation” plates T60 and NCF60; the “incubation” plates T60 and NCF60 were pre-warmed for 10 minutes at 37° C. with constant shaking.
54 μL of the liver microsome solutions was transferred to the blank plate, followed by addition of 6 μL of the NAPDH cofactor solution and 180 μL of the quenching solution to the same blank plate.
5 μL of the compound working solution (100 μM concentration) was next added to into the “incubation” plates (T60 and NCF60) containing microsomes and mixed 3 times thoroughly. For the NCF60 plate, 50 μL of the buffer solution was added, mixed 3 times thoroughly, and incubated at 37° C. for 60 minutes under constant shaking.
In the “Quenching” plate at T0 (T=0 min), 180 μL of quenching solution and 6 μL of the NAPDH cofactor solution were added, and the resulting plate was chilled to prevent evaporation.
In the T60 plate, after it was thoroughly mixed, 54 μL of the mixture was immediately transferred to the “quenching” plate for the 0-minute time point, followed by addition of 44 μL of NAPDH cofactor solution to the incubation plate (T60). The resulting mixture was then incubated at 37° C. for 60 minutes under constant shaking. At time points of 5, 10, 20, 30 and 60 minutes, 180 μL of the quenching solution was added to the “quenching” plates, followed by serial transfer of 60 μL of the mixture (per time point) from the T60 plate to the “Quenching” plates.
For the NCF60 plates, 60 μL of the sample solution was transferred from the NCF60 incubation plate to the “Quenching” plate containing quenching solution at T=60 min time point. […]

Row | SMILES | CLint scaled at 1 µM
1 | CCCc1nn(C)c2c(=O)[nH]c(-c3cc(S(=O)(=O)N4CC(CCCO)C4)ccc3OCC)nc12 [Compound 4, 5-(2-ethoxy-5-((3-(3-hydroxypropyl)azetidin-1-yl)sulfonyl)phenyl)-1-methyl-3-propyl-1,6-dihydro-7H-pyrazolo[4,3-d]pyrimidin-7-one] | 357 mL/min/kg
2 | CCCc1nn(C)c2c(=O)[nH]c(-c3cc(S(=O)(=O)N4CC(CCCO[N+](=O)[O-])C4)ccc3OCC)nc12 [Compound 18, 3-(1-((4-ethoxy-3-(1-methyl-7-oxo-3-propyl-6,7-dihydro-1H-pyrazolo[4,3-d]pyrimidin-5-yl)phenyl)sulfonyl)azetidin-3-yl)propyl nitrate] | 934 mL/min/kg

— US20220153746A1, “NITROGEN OXIDE-DONATING PDE-5 AND/OR PDE-6 INHIBITOR COMPOUNDS, AND USES THEREOF” (ILDONG PHARMACEUTICAL CO., LTD., priority 2020, published 2022)
